# Like-named read-outs stand apart in the source and are kept apart here.
# What was measured:
# [1] = target: DCAMKL1 (Homo sapiens, UniProt O15075); test: KINOMEscan: DCAMKL1; format: binding; details: 1000 nM, read-out: Percent Control
# [2] = target: FLT1 (Homo sapiens, UniProt P17948); test: KINOMEscan: FLT1; format: binding; details: 1000 nM, read-out: Percent Control
# [3] = target: ERK4 (Homo sapiens, UniProt P31152); test: KINOMEscan: ERK4; format: binding; details: 1000 nM, read-out: Percent Control
# ERK4, sequence (P31152 whole entry): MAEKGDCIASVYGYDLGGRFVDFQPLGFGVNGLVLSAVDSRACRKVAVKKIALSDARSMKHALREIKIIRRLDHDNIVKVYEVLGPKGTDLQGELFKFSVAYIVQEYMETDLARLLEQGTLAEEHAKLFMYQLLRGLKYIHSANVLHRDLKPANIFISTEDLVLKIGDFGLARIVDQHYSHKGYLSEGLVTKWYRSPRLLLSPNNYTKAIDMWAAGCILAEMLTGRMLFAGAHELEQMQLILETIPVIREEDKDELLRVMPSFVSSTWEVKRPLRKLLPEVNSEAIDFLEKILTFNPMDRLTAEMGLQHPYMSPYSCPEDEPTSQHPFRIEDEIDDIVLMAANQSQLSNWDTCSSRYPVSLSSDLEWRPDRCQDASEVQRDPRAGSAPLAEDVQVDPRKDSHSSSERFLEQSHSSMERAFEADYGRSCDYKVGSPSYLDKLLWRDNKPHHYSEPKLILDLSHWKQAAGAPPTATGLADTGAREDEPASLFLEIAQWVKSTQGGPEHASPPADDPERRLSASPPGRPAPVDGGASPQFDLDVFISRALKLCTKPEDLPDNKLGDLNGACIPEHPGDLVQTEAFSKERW
# [4] = target: MARK3 (Homo sapiens, UniProt P27448); test: KINOMEscan: MARK3; format: binding; details: 1000 nM, read-out: Percent Control
# [5] = target: CAMKK2 (Homo sapiens, UniProt Q96RR4); test: KINOMEscan: CAMKK2; format: binding; details: 1000 nM, read-out: Percent Control
# [6] = target: AURKB (Homo sapiens, UniProt Q96GD4); test: KINOMEscan: AURKB; format: binding; details: 1000 nM, read-out: Percent Control
# [7] = target: Adenosine A2A (Homo sapiens, UniProt P29274); test: Eurofins Diversity Panel; format: binding; details: hum, Conc. 10 μM
# [8] = target: ADCK3 (Homo sapiens, UniProt Q8NI60); test: KINOMEscan: ADCK3; format: binding; details: 1000 nM, read-out: Percent Control
# ADCK3, sequence (Q8NI60 163-647): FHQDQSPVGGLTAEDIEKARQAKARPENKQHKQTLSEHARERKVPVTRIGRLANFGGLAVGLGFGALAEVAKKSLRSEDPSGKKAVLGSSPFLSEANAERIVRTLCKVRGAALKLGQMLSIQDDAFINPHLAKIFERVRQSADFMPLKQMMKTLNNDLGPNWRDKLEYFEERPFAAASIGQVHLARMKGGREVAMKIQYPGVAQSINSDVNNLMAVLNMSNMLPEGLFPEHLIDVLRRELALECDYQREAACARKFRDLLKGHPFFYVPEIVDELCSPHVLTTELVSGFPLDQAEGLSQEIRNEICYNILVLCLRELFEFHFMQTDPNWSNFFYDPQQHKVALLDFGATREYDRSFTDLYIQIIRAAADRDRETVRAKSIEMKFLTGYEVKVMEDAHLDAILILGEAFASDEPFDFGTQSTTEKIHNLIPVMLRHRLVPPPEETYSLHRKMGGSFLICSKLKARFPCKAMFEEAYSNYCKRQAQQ
# [9] = target: CDK8 (Homo sapiens, UniProt P49336); test: KINOMEscan: CDK8; format: binding; details: 1000 nM, read-out: Percent Control
# [10] = target: Transporter, Serotonin (5-Hydroxytryptamine) (SERT) (Homo sapiens, UniProt P31645); test: Eurofins Diversity Panel; format: binding; details: hum, Conc. 10 μM
# Transporter, Serotonin (5-Hydroxytryptamine) (SERT), sequence (P31645 whole entry): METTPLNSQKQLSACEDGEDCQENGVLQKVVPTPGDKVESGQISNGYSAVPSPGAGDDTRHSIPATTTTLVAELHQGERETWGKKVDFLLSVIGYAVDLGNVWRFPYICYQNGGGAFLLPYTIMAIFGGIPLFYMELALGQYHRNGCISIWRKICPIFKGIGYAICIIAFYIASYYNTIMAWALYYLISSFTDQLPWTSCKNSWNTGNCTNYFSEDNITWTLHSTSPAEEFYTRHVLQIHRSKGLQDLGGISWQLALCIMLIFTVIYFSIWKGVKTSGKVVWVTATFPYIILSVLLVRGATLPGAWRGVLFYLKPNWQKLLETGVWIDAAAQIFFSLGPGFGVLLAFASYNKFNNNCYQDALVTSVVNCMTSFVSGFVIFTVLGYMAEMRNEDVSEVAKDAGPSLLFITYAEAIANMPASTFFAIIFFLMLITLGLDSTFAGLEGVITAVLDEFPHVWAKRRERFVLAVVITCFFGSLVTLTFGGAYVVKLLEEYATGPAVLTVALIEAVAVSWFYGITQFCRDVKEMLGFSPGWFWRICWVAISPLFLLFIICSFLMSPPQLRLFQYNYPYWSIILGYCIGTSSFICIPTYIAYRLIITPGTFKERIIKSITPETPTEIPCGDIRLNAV
# [11] = target: CSNK1G1 (Homo sapiens, UniProt Q9HCP0); test: KINOMEscan: CSNK1G1; format: binding; details: 1000 nM, read-out: Percent Control
# [12] = target: PFCDPK1(P.falciparum) (Plasmodium falciparum, UniProt P62344); test: DiscoverX KINOMEscan kinase profiling; format: binding; details: kinase PFCDPK1(P.falciparum) (Entrez CDPK1); compound concentration 1000 nM; read-out: Percent Control
# PFCDPK1(P.falciparum), sequence (P62344 whole entry): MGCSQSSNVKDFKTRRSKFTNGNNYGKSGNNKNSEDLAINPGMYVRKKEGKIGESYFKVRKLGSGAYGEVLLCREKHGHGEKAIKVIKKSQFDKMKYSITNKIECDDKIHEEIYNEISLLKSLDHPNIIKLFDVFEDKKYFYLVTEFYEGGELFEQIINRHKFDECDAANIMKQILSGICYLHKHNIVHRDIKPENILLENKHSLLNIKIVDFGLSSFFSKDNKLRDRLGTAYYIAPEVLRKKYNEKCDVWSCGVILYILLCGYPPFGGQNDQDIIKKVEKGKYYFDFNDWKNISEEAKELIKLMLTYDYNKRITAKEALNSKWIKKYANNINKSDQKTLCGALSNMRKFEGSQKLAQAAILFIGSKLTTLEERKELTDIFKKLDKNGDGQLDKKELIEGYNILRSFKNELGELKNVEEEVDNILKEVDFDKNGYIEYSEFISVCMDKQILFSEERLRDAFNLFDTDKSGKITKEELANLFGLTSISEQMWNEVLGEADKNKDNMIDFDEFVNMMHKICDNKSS
# [13] = target: CSNK1E (Homo sapiens, UniProt P49674); test: KINOMEscan: CSNK1E; format: binding; details: 1000 nM, read-out: Percent Control
# [14] = target: Dopamine D1 (Homo sapiens, UniProt P21728); test: Eurofins Diversity Panel; format: binding; details: hum, Conc. 10 μM
# [15] = tested on: Purinergic P2Y; test: Eurofins Diversity Panel; format: binding; details: rat, Conc. 10 μM
# [16] = target: TYK2(JH2domain-pseudokinase) (Homo sapiens, UniProt P29597); test: KINOMEscan: TYK2(JH2domain-pseudokinase); format: binding; details: 100 nM, read-out: Percent Control
# [17] = target: SRMS (Homo sapiens, UniProt Q9H3Y6); test: KINOMEscan: SRMS; format: binding; details: 100 nM, read-out: Percent Control
# [18] = target: CDK3 (Homo sapiens, UniProt Q00526); test: KINOMEscan: CDK3; format: binding; details: 1000 nM, read-out: Percent Control
# CDK3, sequence (Q00526 whole entry): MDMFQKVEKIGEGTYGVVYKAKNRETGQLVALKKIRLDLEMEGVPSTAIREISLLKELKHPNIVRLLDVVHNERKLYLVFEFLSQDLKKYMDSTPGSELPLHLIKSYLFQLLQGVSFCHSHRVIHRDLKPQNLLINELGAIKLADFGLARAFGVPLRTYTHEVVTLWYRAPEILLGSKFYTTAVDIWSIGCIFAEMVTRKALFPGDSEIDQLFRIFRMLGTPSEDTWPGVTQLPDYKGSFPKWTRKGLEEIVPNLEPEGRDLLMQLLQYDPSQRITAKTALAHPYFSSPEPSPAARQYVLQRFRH
# [19] = target: CIT (Homo sapiens, UniProt O14578); test: KINOMEscan: CIT; format: binding; details: 1000 nM, read-out: Percent Control
# [20] = target: EPHA3 (Homo sapiens, UniProt P29320); test: KINOMEscan: EPHA3; format: binding; details: 1000 nM, read-out: Percent Control
# [21] = tested on: Nicotinic Acetylcholine; test: Eurofins Diversity Panel; format: binding, human; details: hum, Conc. 10 μM
# [22] = target: CAMK1D (Homo sapiens, UniProt Q8IU85); test: KINOMEscan: CAMK1D; format: binding; details: 1000 nM, read-out: Percent Control
# [23] = target: Calcium Channel N-Type (Rattus norvegicus, UniProt Q02294); test: Eurofins Diversity Panel; format: binding; details: Conc. 10 μM
# [24] = target: RET(M918T) (Homo sapiens, UniProt P07949, M918T); test: KINOMEscan: RET(M918T); format: binding; details: 100 nM, read-out: Percent Control
# RET(M918T), sequence (P07949 29-1114 M918T): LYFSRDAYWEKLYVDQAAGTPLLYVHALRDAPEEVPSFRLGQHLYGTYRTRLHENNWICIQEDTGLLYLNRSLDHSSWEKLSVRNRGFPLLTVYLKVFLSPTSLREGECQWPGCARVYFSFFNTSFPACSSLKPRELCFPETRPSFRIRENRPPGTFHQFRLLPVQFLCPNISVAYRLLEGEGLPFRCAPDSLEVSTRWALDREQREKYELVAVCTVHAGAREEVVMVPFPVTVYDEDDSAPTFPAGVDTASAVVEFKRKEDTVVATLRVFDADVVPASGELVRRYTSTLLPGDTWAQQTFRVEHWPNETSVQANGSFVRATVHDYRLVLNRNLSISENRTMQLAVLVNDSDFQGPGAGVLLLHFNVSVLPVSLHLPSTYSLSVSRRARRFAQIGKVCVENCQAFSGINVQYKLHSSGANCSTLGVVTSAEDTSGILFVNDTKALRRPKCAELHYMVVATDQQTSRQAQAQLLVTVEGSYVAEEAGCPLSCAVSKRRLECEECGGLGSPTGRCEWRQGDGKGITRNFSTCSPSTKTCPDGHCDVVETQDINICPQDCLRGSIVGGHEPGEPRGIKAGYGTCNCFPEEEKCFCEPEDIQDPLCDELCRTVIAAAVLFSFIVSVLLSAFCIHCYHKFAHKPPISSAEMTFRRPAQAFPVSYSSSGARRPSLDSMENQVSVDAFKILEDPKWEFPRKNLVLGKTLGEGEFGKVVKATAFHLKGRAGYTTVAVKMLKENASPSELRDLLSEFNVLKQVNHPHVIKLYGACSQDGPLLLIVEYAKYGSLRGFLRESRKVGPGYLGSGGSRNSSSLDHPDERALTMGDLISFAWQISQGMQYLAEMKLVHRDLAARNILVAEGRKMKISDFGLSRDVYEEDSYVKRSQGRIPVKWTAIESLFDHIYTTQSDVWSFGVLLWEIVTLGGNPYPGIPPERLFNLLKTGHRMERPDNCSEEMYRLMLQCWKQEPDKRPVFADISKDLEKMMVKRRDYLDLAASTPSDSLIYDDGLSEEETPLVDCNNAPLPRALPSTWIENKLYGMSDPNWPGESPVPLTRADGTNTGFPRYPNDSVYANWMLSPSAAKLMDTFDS
# [25] = target: EGFR (Homo sapiens, UniProt P00533); test: KINOMEscan: EGFR; format: binding; details: 1000 nM, read-out: Percent Control
# EGFR, sequence (P00533 25-1210): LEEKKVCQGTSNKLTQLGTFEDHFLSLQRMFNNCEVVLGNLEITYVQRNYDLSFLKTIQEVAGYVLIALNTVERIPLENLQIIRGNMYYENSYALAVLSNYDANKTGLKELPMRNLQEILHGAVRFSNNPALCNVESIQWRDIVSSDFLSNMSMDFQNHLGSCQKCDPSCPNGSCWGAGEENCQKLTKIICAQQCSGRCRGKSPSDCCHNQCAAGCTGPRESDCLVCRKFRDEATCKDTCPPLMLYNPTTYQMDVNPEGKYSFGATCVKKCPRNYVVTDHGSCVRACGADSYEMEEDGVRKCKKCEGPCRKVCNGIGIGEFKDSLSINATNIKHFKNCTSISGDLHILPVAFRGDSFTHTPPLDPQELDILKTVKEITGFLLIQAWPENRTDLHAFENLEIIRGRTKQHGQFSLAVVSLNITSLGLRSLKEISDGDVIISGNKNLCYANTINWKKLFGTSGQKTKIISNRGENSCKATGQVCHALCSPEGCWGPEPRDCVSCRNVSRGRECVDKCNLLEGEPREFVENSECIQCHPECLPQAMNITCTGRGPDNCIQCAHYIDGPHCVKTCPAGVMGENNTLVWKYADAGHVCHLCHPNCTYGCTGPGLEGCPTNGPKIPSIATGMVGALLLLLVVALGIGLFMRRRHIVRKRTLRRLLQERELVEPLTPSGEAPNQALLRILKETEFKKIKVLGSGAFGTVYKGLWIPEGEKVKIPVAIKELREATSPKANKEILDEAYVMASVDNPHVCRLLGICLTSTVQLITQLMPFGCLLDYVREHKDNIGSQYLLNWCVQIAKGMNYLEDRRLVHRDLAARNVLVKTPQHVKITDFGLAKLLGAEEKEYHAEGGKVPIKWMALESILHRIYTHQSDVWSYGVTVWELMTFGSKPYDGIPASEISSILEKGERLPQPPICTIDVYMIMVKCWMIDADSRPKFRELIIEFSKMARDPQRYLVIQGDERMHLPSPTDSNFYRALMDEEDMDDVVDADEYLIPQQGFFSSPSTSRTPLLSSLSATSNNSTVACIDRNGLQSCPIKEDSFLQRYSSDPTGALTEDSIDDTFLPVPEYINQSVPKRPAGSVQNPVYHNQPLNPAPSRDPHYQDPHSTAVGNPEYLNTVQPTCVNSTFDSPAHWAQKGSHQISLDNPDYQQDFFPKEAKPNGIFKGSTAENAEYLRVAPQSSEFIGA
# [26] = tested on: GABAA, Flunitrazepam, Central; test: Eurofins Diversity Panel; format: binding; details: rat, Conc. 10 μM
# [27] = target: FLT3 (Homo sapiens, UniProt P36888); test: KINOMEscan: FLT3; format: binding; details: 1000 nM, read-out: Percent Control
# [28] = tested on: Purinergic P2X; test: Eurofins Diversity Panel; format: binding; details: rabbit, Conc. 10 μM
# [29] = target: hERG potassium channel (Homo sapiens, UniProt Q12809); test: Eurofins Diversity Panel; format: binding; details: hum, Conc. 10 μM
# [30] = target: IGF1R (Homo sapiens, UniProt P08069); test: KINOMEscan: IGF1R; format: binding; details: 1000 nM, read-out: Percent Control
# [31] = target: ICK (Homo sapiens, UniProt Q9UPZ9); test: KINOMEscan: ICK; format: binding; details: 1000 nM, read-out: Percent Control
# [32] = target: DYRK1A (Homo sapiens, UniProt Q13627); test: KINOMEscan: DYRK1A; format: binding; details: 1000 nM, read-out: Percent Control
# [33] = target: MKNK1 (Homo sapiens, UniProt Q9BUB5); test: KINOMEscan: MKNK1; format: binding; details: 1000 nM, read-out: Percent Control
# [34] = target: Platelet Activating Factor (PAF) (Homo sapiens, UniProt P25105); test: Eurofins Diversity Panel; format: binding; details: hum, Conc. 10 μM
# [35] = target: MUSK (Homo sapiens, UniProt O15146); test: KINOMEscan: MUSK; format: binding; details: 1000 nM, read-out: Percent Control
# [36] = target: TRKB (Homo sapiens, UniProt Q16620); test: KINOMEscan: TRKB; format: binding; details: 100 nM, read-out: Percent Control
# [37] = target: ACVRL1 (Homo sapiens, UniProt P37023); test: KINOMEscan: ACVRL1; format: binding; details: 1000 nM, read-out: Percent Control
# [38] = tested on: HG-3; test: MTS proliferation assay; format: cell-based
# [39] = target: YANK1 (Homo sapiens, UniProt Q8WU08); test: KINOMEscan: YANK1; format: binding; details: 100 nM, read-out: Percent Control
# [40] = target: Opiate δ1 (OP1, DOP) (Homo sapiens, UniProt P41143); test: Eurofins Diversity Panel; format: binding; details: hum, Conc. 10 μM
# [41] = target: MAP3K15 (Homo sapiens, UniProt Q6ZN16); test: KINOMEscan: MAP3K15; format: binding; details: 1000 nM, read-out: Percent Control
structure (smiles),measurement,setting,value
COc1cc(F)ccc1-c1cc(Nc2cc(CS(C)(=N)=O)ccn2)ncc1F (stereo not drawn) [VIP152],remaining binding at 1 µM,[1],86%
same,remaining binding at 1 µM,[2],86%
same,remaining binding at 1 µM,[3],99%
same,remaining binding at 1 µM,[4],100%
same,remaining binding at 1 µM,[5],16%
same,remaining binding at 1 µM,[6],57%
same,inhibition at 10 µM,[7],22%
same,remaining binding at 1 µM,[8],97%
same,remaining binding at 1 µM,[9],93%
same,inhibition at 10 µM,[10],-3%
same,remaining binding at 1 µM,[11],91%
same,remaining binding at 1 µM,[12],86%
same,remaining binding at 1 µM,[13],89%
same,inhibition at 10 µM,[14],14%
same,% Inh.,[15],8%
same,remaining binding at 0.1 µM,[16],100%
same,remaining binding at 0.1 µM,[17],98%
same,remaining binding at 1 µM,[18],37%
same,remaining binding at 1 µM,[19],43%
same,remaining binding at 1 µM,[20],89%
same,% Inh.,[21],-9%
same,remaining binding at 1 µM,[22],99%
same,inhibition at 10 µM,[23],4%
same,remaining binding at 0.1 µM,[24],100%
same,remaining binding at 1 µM,[25],81%
same,% Inh.,[26],6%
same,remaining binding at 1 µM,[27],38%
same,% Inh.,[28],11%
same,inhibition at 10 µM,[29],26%
same,remaining binding at 1 µM,[30],100%
same,remaining binding at 1 µM,[31],9%
same,remaining binding at 1 µM,[32],12%
same,remaining binding at 1 µM,[33],98%
same,inhibition at 10 µM,[34],6%
same,remaining binding at 1 µM,[35],58%
same,remaining binding at 0.1 µM,[36],100%
same,remaining binding at 1 µM,[37],38%
same,IC50,"[38]; Homo sapiens, 24, 48, and 72 h, read-out: proliferation IC50",50 to 67 nM
same,IC50,"[38]; Homo sapiens, two-hour drugging followed by washout, MTS after 72 h, read-out: 50% growth inhibition",970 nM
same,remaining binding at 0.1 µM,[39],100%
same,inhibition at 10 µM,[40],9%
same,remaining binding at 1 µM,[41],93%
